In patent US20250136602A1, “PROCESS FOR THE PREPARATION OF A PURE AMORPHOUS FORM OF UBROGEPANT” (MSN LABORATORIES PRIVATE LIMITED, F&D CENTER, priority 2021, published 2025):

Tests used:
Type in all cases: physicochemical
[1] = Long term stability of amorphous Ubrogepant (HPLC purity, PXRD); details: long term stability at 25 ± 2° C. under 60 ± 5% humidity condition upto 6 months
Experimental: (§1) Eighth aspect of the first embodiment, the accelerated and long-term stability data of amorphous Ubrogepant of formula-1 is outlined in Table-1 as follows: […]
(§2) Ubrogepant and its related substances were analyzed by HPLC with the following chromatographic conditions: Apparatus: A liquid chromatographic system is to be equipped with variable wavelength UV-Detector and integrator; Column: Xbridge C18 150×4.6 mm, 3.5 μm Ghost-Buster column: Ghost buster 50 mm×4.6 mm; Wavelength: 210 nm; Column temperature: 25° C.; Injection volume: 5 μL; Elution: Gradient; Diluent: Acetonitrile: Water; Needle wash: Diluent.
(§3) The PXRD analysis of compound of the present invention was carried out by using BRUKER-Axis/D8 ADVANCE (DAVINCI) X-Ray diffractometer using CuKα radiation of wavelength 1.5406 A°.

[2] = Accelerated stability of amorphous Ubrogepant (HPLC purity, PXRD); details: accelerated stability at 40 ± 2° C. under 75 ± 5% humidity condition upto 6 months
Experimental: as §1, §2, §3

[3] = Polymorphic stress study of amorphous Ubrogepant
Experimental: Ninth aspect of the first embodiment of the present invention, amorphous Ubrogepant is also stable under below Polymorphic stress study conditions:
as §3

C[C@@H]1[C@H](c2ccccc2)C[C@H](NC(=O)c2cnc3c(c2)C[C@@]2(C3)C(=O)Nc3ncccc32)C(=O)N1CC(F)(F)F [Amorphous Ubrogepant, (3′S)—N-((3S,5S,6R)-6-methyl-2-oxo-5-phenyl-1-(2,2,2-trifluoroethyl)piperidin-3-yl)-2′-oxo-1′,2′,5,7-tetrahydrospiro [cyclopenta[b]pyridine-6,3′-pyrrolo[2,3-b]pyridine]-3-carboxamide]
PXRD Result [1]: stable
Purity by HPLC [1]: >99.75%
PXRD Result [2]: stable
Purity by HPLC [2]: >99.75%
Result (polymorphic stability) ([3]; hygroscopicity analysis (75 ± 5% RH), 24 hours): stable
Result (polymorphic stability) ([3]; stress study under 10 tons pressure, 3 mins): stable
Result (polymorphic stability) ([3]; thermal analysis at 60° ± 2° C., 24 hours): stable
Result (polymorphic stability) ([3]; under UV light at 254 nm, 24 hours): stable
